A short description of series [1]: solubility of TCE in water as a function of temperature (Dickson-type autoclave). The following applies: at 298 K; calculated from solubility measured from 298 to 398 K at constant pressure. It is filed as physicochemical. From the text: (§1) The static autoclave experiments are run in Dickson-type, gold-bag rocking autoclaves. The autoclave reaction vessel uses a flexible gold bag sealed with a passivated titanium head and is contained within a large steel pressure vessel. The autoclave design allows periodic sampling of the reaction cell under in situ conditions throughout the course of an experiment without disturbing the temperature and pressure of the run. During the experiment the solution contacts only gold and passivated titanium so that unwanted surface catalytic effects are eliminated. Various combinations of solid, liquid or gaseous catalysts or oxidants are introduced into the reactor in order to study their effects on reaction mechanisms and rates. The sampled fluids and gases are analyzed using a variety of analytical techniques including ICP-ES, IC, GC (using purge and trap), gas MS, GC/MS, and HPLC.
A Dickson-type autoclave, as described above, equipped with a precision high pressure liquid chromatography pump to control pressure was used to measure the solubility of TCE in water as a function of temperature from 298 to 398 K at constant pressure. Obtained results were used to calculate the partial molal thermodynamic quantities for the dissolution reaction of TCE in water at 298 K: ΔGsoln=11.1 (±0.71) KJ/mol, ΔHsoln=3.075 (±0.525) KJ/mol and ΔSsoln=−28.29 (±1.61) J/mol-K.

The nature of series [2]: hydrous pyrolysis/oxidation of TCE dissolved in water with dissolved oxygen. The series is classed as physicochemical. The conditions noted are these: temperatures above 90° C.
Text: as §1
All experiments are conducted in non-reactive flexible gold bag hydrothermal systems, so that complications due to experimental artifacts from catalysis by the equipment itself are avoided, and both temperature and pressure can be precisely controlled. Many samples can be taken and tested as the reaction proceeds without affecting the conditions of the reaction itself. […]

Take `ClC=C(Cl)Cl` [TCE, trichloroethylene]: in series [1], the “ΔGsoln, partial molal quantity for the dissolution reaction in water” value is listed as 11.1 (±0.71) KJ/mol; the “ΔHsoln, partial molal quantity for the dissolution reaction in water” value is 3.075 (±0.525) KJ/mol; the “ΔSsoln, partial molal quantity for the dissolution reaction in water” value is reported as −28.29 (±1.61) J/mol-K. Moreover, the “decrease of concentration by hydrous pyrolysis/oxidation” value in series [2] (initial runs with high starting concentrations (up to ≧600 ppm)) is reported as ≤ 10,000 fold. Moreover, the “concentration eventually reached (drinking water MCL)” value in series [2] (initial runs with high starting concentrations) turned out to be 5 ppb.

The values are drawn from patent publication US6387278B1, “Increasing subterranean mobilization of organic contaminants and petroleum by aqueous thermal oxidation” (The Regents of the University of California, priority 2000, dated 2002).
